We go through four molecules from patent EP1029854A1, “Oxazolidinones and their use as antibacterial agents” (BAYER AG, priority 1999, dated 2000).

Molecules are shown by their SMILES. Values after ≈ are worked out from the molar mass of the structure shown.

The test system of the assay is S.aureus 133. The assay can be described thus: MIC (MHK) determination by microdilution method in BH medium. As to conditions: for MIC: Staphylococcus aureus, S.aureus 133, microdilution in BH-Medium, 37°C, read after ca. 20 hours or 3 to 5 days, lowest concentration with no visible growth, samples Diastereomer 1 /Diastereomer 2 = 100:1, read-out: MHK-Werte; for Wirksameres Diastereomer: qualitative comparison with Diastereomer 2 of the same example, test not named in the heading, presumably the MIC test. It is filed as cell-based. The method, then:
Die MHK-Werte wurden mit Hilfe der Mikrodilutionsmethode in BH-Medium bestimmt. Jede Prüfsubstanz wurde in DMSO gelöst. In der Mikrotiterplatte wurde durch serielle Verdünnung eine Konzentrationsreihe der Prüfsubstanzen angelegt. Zur Inokulation wurden Übernachtkulturen der Erreger verwandt, die zuvor im Nährmedium 1:250 verdünnt wurden. Zu 100 µl der verdünnten, wirkstoffhaltigen Nährlösungen wurden je 100 µl Inokulationslösung gegeben.
Die Mikrotiterplatten wurden bei 37°C bebrütet und nach ca. 20 Stunden oder nach 3 bis 5 Tagen abgelesen. Der MHK-Wert (µg/ml) gibt die niedrigste Wirkstoffkonzentration an, bei der kein Wachstum zu erkennen war.
For orientation: Broth dilution looks for growth in wells or tubes with falling amounts of substance.

Consider `C=CC(O)[C@H]1CN(c2ccc3c(c2)OCc2nccn2-3)C(=O)O1` (single isomer, unassigned) [Beispiel 1], for which the MIC amounted to 1.5 µg/mL (≈ 4.79 µM). As for `C#CC(O)[C@H]1CN(c2ccc3c(c2)OCc2nccn2-3)C(=O)O1` (single isomer, unassigned) [Beispiel 2 Diastereomer 1], the “Wirksameres Diastereomer” value is recorded as “Wirksameres Diastereomer”. Turning to `C=CC(O)[C@H]1CN(c2ccc3c(c2)OCc2nccn2-3)C(=O)O1` (single isomer, unassigned) [Beispiel 1 Diastereomer 1], the “Wirksameres Diastereomer” value is recorded as “Wirksameres Diastereomer”. As for `C#CC(O)[C@H]1CN(c2ccc3c(c2)OCc2nccn2-3)C(=O)O1` (single isomer, unassigned) [Beispiel 2], the MIC was 1 µg/mL (≈ 3.21 µM).
